Test results reported in patent US9024021B2, “Diarylacetylene hydrazide containing tyrosine kinase inhibitors” (Sun Pharma Advanced Research Company Ltd., priority 2011, dated 2015).

Key:
Abl (Q252H) (human) = target: T1, Abl (Q252H) (human) (Homo sapiens, UniProt P00519, Q252H); assay: Mutated Abl kinase inhibition (in vitro), Q252H; format: biochemical; settings: 100 nM
T1 construct: purchased Millipore Pharma Services (contract assay, UK pharmacology laboratory)
Method: (§1) The kinase assays were performed by Millipore Pharma Services at their UK pharmacology laboratory.
(§2) In a final reaction volume of 25 μL, Abl (human) (5-10 mU) is incubated with 8 mM MOPS pH7.0, 0.2 mM EDTA, 50 μM […], 10 mM Mg(OAc)2 and [γ-^33P-ATP] [specific activity approx. 500 cpm/pmol, concentration as required). The reaction is initiated by the addition of the MgATP mix. After incubation for 40 minutes at room temperature, the reaction is stopped by the addition of 5 μL of a 3% phosphoric acid solution. 10 μL of the reaction is then spotted onto a P30 filtermat and washed three times for 5 minutes in 75 mM phosphoric acid and once in methanol prior to drying and scintillation counting.
(§3) The procedure remains exactly the same as described earlier for Abl kinase, the Abl (human) kinase being replaced by mutated Abl (Q252H) (human), Abl (Y253F) (human), Abl (T315I) (human), Abl (M351T) (human) and Abl (H396P) (human) kinases.
(§4) Within each kinase assay, percent of control values were calculated for each test compound raw data point based on mean minimum (0%) and maximum (100%) controls (n=4 per control) for that kinase (sample−mean minimum/mean maximum−mean minimum×100%). Percent inhibition was calculated from these values (100−mean percent of control).

Abl (Y253F) (human) = target: T2, Abl (Y253F) (human) (Homo sapiens, UniProt P00519, Y253F); assay: Mutated Abl kinase inhibition (in vitro), Y253F; format: biochemical; settings: 100 nM
T2 construct: purchased Millipore Pharma Services (contract assay, UK pharmacology laboratory)
Method: as §1, §2, §3, §4

Abl (M351T) (human) = target: T3, Abl (M351T) (human) (Homo sapiens, UniProt P00519, M351T); assay: Mutated Abl kinase inhibition (in vitro), M351T; format: biochemical; settings: 100 nM
T3 construct: purchased Millipore Pharma Services (contract assay, UK pharmacology laboratory)
Method: as §1, §2, §3, §4

Abl (H396P) (human) = target: T4, Abl (H396P) (human) (Homo sapiens, UniProt P00519, H396P); assay: Mutated Abl kinase inhibition (in vitro), H396P; format: biochemical; settings: 100 nM
T4 construct: purchased Millipore Pharma Services (contract assay, UK pharmacology laboratory)
Method: as §1, §2, §3, §4

Lck (human) = target: T5, Lck (human) (Homo sapiens, UniProt P06239); assay: Lck kinase inhibition (in vitro); format: biochemical; settings: read-out: % Inhibition at 100 nM Lck
T5 construct: purchased Millipore Pharma Services (contract assay, UK pharmacology laboratory)
Method: as §1
In a final reaction volume of 25 μL, Lck (human) (5-10 mU) is incubated with 50 mM Tris pH 7.5, 0.1 mM EGTA, 0.1 mM Na3VO4, 250 μM […] [Cdc2 peptide), 10 mM Mg(OAc)2 and [γ-^33P-ATP] [specific activity approx. 500 cpm/pmol, concentration as required). The reaction is initiated by the addition of the MgATP mix. After incubation for 40 minutes at room temperature, the reaction is stopped by the addition of 5 μL of a 3% phosphoric acid solution. 10 μL of the reaction is then spotted onto a P30 filtermat and washed three times for 5 minutes in 75 mM phosphoric acid and once in methanol prior to drying and scintillation counting.
as §4

Lyn (human) = target: T6, Lyn (human) (Homo sapiens, UniProt P07948); assay: Lyn kinase inhibition (in vitro); format: biochemical; settings: read-out: % Inhibition at 100 nM Lyn
T6 construct: purchased Millipore Pharma Services (contract assay, UK pharmacology laboratory)
Method: as §1
In a final reaction volume of 25 μL, Lyn (human) (5-10 mU) is incubated with 50 mM Tris pH 7.5, 0.1 mM EGTA, 0.1 mM Na3VO4, 0.1% β-mercaptoethanol, 0.1 mg/ml poly(Glu, tyr) 4:1, 10 mM Mg(OAc)2 and [γ-^33P-ATP] [specific activity approx. 500 cpm/pmol, concentration as required). The reaction is initiated by the addition of the MgATP mix. After incubation for 40 minutes at room temperature, the reaction is stopped by the addition of 5 μL of a 3% phosphoric acid solution. 10 μL of the reaction is then spotted onto a filtermat A and washed three times for 5 minutes in 75 mM phosphoric acid and once in methanol prior to drying and scintillation counting.
as §4

K562 cells = assay: In-vitro cell proliferation assay (MTT), K562 cells; format: cell-based; settings: Homo sapiens; for inhibition at 0.01 µM: 10 nM; for inhibition at 0.1 µM: 100 nM
Method: In-Vitro Cell Proliferation Assay
K562/U937 cells (2×10^4 per well) were incubated with the test compounds/vehicle in a total volume of 200 μL of media at 37° C. with 5% CO2. […] The cells were incubated overnight at 37° C. with 5% CO2. On Day 5 the optical density was measured at 570 nm with 630 nm as reference wavelength. The optical density in the vehicle treated wells was compared with that of the test compound treated wells.

Abl (T315I) (human) = target: T7, Abl (T315I) (human) (Homo sapiens, UniProt P00519, T315I); assay: Abl-T315I kinase inhibition (in vitro); format: biochemical; settings: for inhibition at 0.1 µM: 100 nM; for inhibition at 1 µM: 1000 nM
T7 construct: purchased Millipore Pharma Services (contract assay, UK pharmacology laboratory)
Method: as §1
[specific activity approx. 500 cpm/pmol, concentration as required). The reaction is initiated by the addition of the MgATP mix. After incubation for 40 minutes at room temperature, the reaction is stopped by the addition of 5 μL of a 3% phosphoric acid solution. 10 μL of the reaction is then spotted onto a P30 filtermat and washed three times for 5 minutes in 75 mM phosphoric acid and once in methanol prior to drying and scintillation counting.
as §4

T6 sequence (P07948 whole entry): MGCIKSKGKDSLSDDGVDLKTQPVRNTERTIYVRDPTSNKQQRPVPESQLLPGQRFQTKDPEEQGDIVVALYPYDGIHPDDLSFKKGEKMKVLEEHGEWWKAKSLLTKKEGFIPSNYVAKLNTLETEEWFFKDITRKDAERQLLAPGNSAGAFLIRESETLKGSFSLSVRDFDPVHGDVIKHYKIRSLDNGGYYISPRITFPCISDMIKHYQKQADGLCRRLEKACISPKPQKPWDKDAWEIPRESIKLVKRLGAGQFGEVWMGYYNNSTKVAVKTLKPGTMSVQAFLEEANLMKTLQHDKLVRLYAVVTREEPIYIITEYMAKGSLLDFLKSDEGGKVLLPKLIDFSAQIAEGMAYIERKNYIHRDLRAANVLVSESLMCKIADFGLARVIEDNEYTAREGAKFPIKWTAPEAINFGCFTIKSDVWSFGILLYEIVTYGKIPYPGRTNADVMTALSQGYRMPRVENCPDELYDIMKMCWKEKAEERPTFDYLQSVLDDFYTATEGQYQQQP
T5 sequence (P06239 whole entry): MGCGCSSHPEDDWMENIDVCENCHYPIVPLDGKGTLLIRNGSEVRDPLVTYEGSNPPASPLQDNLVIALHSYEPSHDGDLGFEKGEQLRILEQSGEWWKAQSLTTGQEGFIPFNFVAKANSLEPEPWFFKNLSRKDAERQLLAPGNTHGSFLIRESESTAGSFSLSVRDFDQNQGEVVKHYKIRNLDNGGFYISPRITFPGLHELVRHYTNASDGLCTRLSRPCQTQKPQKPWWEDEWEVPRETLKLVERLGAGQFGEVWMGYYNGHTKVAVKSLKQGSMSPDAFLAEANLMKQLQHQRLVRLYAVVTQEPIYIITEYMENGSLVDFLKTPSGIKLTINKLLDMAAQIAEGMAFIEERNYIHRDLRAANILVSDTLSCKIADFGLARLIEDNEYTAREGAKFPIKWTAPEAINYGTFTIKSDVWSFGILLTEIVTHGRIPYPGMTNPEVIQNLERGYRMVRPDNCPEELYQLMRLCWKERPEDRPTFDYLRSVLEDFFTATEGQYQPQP

inhibition at 0.1 µM (Abl (Q252H) (human)) [%] | inhibition at 0.1 µM (Abl (Y253F) (human)) [%] | inhibition at 0.1 µM (Abl (M351T) (human)) [%] | inhibition at 0.1 µM (Abl (H396P) (human)) [%] | inhibition at 0.1 µM (Lck (human)) [%] | inhibition at 0.1 µM (Lyn (human)) [%] | inhibition at 0.1 µM (Abl (T315I) (human)) [%] | inhibition at 1 µM (Abl (T315I) (human)) [%] | SMILES | inhibition at 0.01 µM (K562 cells) [%] | inhibition at 0.1 µM (K562 cells) [%]
100 | 101 | 100 | 99 | 84 | 97 |  |  | Cc1ccc(C(=O)NNC(=O)c2c(C)cccc2Cl)cc1C#Cc1cnc2ccccc2c1 [I.2, N′-(2-Chloro-6-methylbenzoyl)-4-methyl-3-[2-(3-quinolyl)ethynyl]benzohydrazide] |  | 
100 | 98 | 99 | 100 | 81 | 97 | 90 | 100 | Cc1ccc(C(=O)NNC(=O)c2c(C)cccc2I)cc1C#Cc1cnc2ccccc2c1 [I.4, N′-(2-Iodo-6-methylbenzoyl)-4-methyl-3-[2-(3-quinolyl)ethynyl]benzohydrazide] | 102 | 100
98 | 98 | 100 | 99 | 65 | 74 | 70 | 93 | Cc1ccc(C(=O)NNC(=O)c2c(C)cccc2Cl)cc1C#Cc1cnc2cccnn12 [I.16, N′-(2-Chloro-6-methylbenzoyl)-3-[2-(imidazo[1,2-b]pyridazin-3-yl)ethynyl]-4-methylbenzohydrazide] | 104 | 102
